Several values for one entry are separate records, joined by “and”; a condition that tells them apart may be missing. Equal values may be shown once. Activity calls are given as the source filed them. The rule behind the calls is not given here.
How the values were obtained:
NS3h 2a[JFH1] = assay: HCV NS3 helicase inhibition across viral strains, late-stage follow-up, selectivity assay for HCV NS3 helicase inhibitor project, biochemical, real-time fluorescence, strains con1 and JFH1, set 3 (AID 602275); conditions: Recombinant NS3h, real-time fluorescence helicase unwinding
NS3h 1b[con1] = assay: as above; conditions: Recombinant NS3h, real-time fluorescence helicase unwinding

Compound | IC50 (NS3h 2a[JFH1]) | IC50 (NS3h 1b[con1]) | outcome (NS3h 1b[con1]) | outcome (NS3h 2a[JFH1])
Cc1ccc2nc(-c3ccc4nc(-c5ccc(NC(=O)c6ccc(F)cc6)cc5)sc4c3)sc2c1S(=O)(=O)O | 3 µM | 5.2 µM | – | –
Cc1ccc2nc(-c3ccc4nc(-c5ccc(NC(=O)c6cc(F)ccc6C(F)(F)F)cc5)sc4c3)sc2c1S(=O)(=O)O | 16.6 µM | 19 µM | – | –
Cc1ccc2nc(-c3ccc4nc(-c5ccc6nc(-c7ccc(N)cc7)sc6c5)sc4c3)sc2c1S(=O)(=O)O (tested in a mixture with another compound) | 5.3 µM | 12.8 µM | – | –
Cc1ccc2nc(-c3ccc4nc(-c5ccc(NC(=O)c6cc(F)cc(C(F)(F)F)c6)cc5)sc4c3)sc2c1S(=O)(=O)O | 15.8 µM | 28.4 µM | – | –
Cc1ccc2c(sc(-c3ccc4c(c3)sc(-c3ccc5c(c3)sc(-c3ccc(N(C)C)cc3)[n+]5C)[n+]4C)[n+]2C)c1S(=O)(=O)O (tested in a mixture with another compound) | 15.6 µM | 23.8 µM | – | –
Cc1ccc2nc(-c3ccc4nc(-c5ccc(NC(=O)Nc6ccccc6)cc5)sc4c3)sc2c1S(=O)(=O)O | 6 µM | 4.1 µM | – | –
Cc1ccc(NC(=O)Nc2ccc(-c3nc4ccc(-c5nc6ccc(C)c(S(=O)(=O)O)c6s5)cc4s3)cc2)cc1 | 4 µM | 5.3 µM | – | –
Cc1ccc2nc(-c3ccc4nc(-c5ccc(NC(=S)Nc6ccccc6)cc5)sc4c3)sc2c1S(=O)(=O)O | 9.6 µM | 9.3 µM | – | –
Cc1ccc2nc(-c3ccc(NC(=O)c4ccc(N)cc4)cc3)sc2c1S(=O)(=O)O | inactive | inactive | – | –
Cc1ccc2nc(-c3ccc(NC(=O)c4ccc(NC(=O)c5ccc(N)cc5)cc4)cc3)sc2c1S(=O)(=O)O | 25.5 µM | 29.4 µM | – | –
Cc1ccc2nc(-c3ccc4nc(-c5ccc(NC(=O)c6cccc7ccccc67)cc5)sc4c3)sc2c1S(=O)(=O)O | 3.9 µM | 4.5 µM | – | –
Cc1ccc2nc(-c3ccc4nc(-c5ccc(NC(=O)c6cc(C(F)(F)F)ccc6F)cc5)sc4c3)sc2c1S(=O)(=O)O | 6.7 µM | 6.4 µM | – | –
Cc1ccc2nc(-c3ccc4nc(-c5ccc(NC(=O)c6ccc(C(C)(C)C)cc6)cc5)sc4c3)sc2c1S(=O)(=O)O | 5 µM | 8.2 µM | – | –
Cc1ccc2nc(-c3ccc4nc(-c5ccc(NC(=O)c6ccc(C(F)(F)F)cc6)cc5)sc4c3)sc2c1S(=O)(=O)O | 2.3 µM | 1.8 µM | – | –
Cc1ccc2nc(-c3ccc4nc(-c5ccc(NC(=O)Nc6ccc(C(F)(F)F)cc6)cc5)sc4c3)sc2c1S(=O)(=O)O | 4 µM | 5.1 µM | – | –
Cc1ccc2nc(-c3ccc(NC(=S)Nc4ccccc4Br)cc3)sc2c1 | inactive | – | inactive | –
O=C(CCCCCCC(=O)Nc1ccc(-c2nc3ccccc3[nH]2)cc1)Nc1ccc(-c2nc3ccccc3[nH]2)cc1 | 4.7 µM | 7.5 µM | – | –
Cc1ccc2nc(-c3ccc4nc(-c5ccc(NS(=O)(=O)c6ccc(C(F)(F)F)cc6)cc5)sc4c3)sc2c1S(=O)(=O)O | 35 µM | 32 µM | – | –
Cc1ccc2nc(-c3ccc4nc(-c5ccc(NC(=O)c6cccc(Cl)c6)cc5)sc4c3)sc2c1S(=O)(=O)O | 3.9 µM | 2.6 µM | – | –
Cc1ccc2nc(-c3ccc(NC(=O)c4ccc(NC(=O)c5ccccc5)cc4)cc3)sc2c1S(=O)(=O)O | inactive | inactive | – | –
Cc1ccc(C(=O)Nc2ccc(-c3nc4ccc(-c5nc6ccc(C)c(S(=O)(=O)O)c6s5)cc4s3)cc2)cc1 | 2.5 µM | 3.3 µM | – | –
Cc1ccc2nc(-c3ccc4nc(-c5ccc(NC(=O)c6ccc(N)cc6)cc5)sc4c3)sc2c1S(=O)(=O)O | 5.3 µM | 10.3 µM | – | –
Cc1cc(C(O)(c2ccc(Nc3ccccc3)cc2)c2ccc(Nc3ccc(S(=O)(=O)O)cc3)cc2)ccc1N (configuration not stated) | 16.8 µM | 28.6 µM | – | –
COc1ccc(C(=O)Nc2ccc(-c3nc4ccc(-c5nc6ccc(C)c(S(=O)(=O)O)c6s5)cc4s3)cc2)cc1 | 5.4 µM | 10 µM | – | –
CN1CCN(Cc2cc(CN3CCN(C)CC3)c(O)c(=O)c(CN3CCN(C)CC3)c2)CC1 | 18.9 µM | 24 µM | – | –
Cc1ccc2nc(-c3ccc4nc(-c5ccc6nc(-c7ccc8nc(-c9ccc(N)cc9)sc8c7)sc6c5)sc4c3)sc2c1S(=O)(=O)O | 0.5 µM and 1.2 µM | 0.8 µM and 2.2 µM | – | –
Cc1ccc2nc(-c3ccc4nc(-c5ccc(NC(=O)c6cccnc6)cc5)sc4c3)sc2c1S(=O)(=O)O | 28.3 µM | – | – | –

Continued, values first:

IC50 (NS3h 2a[JFH1]) | IC50 (NS3h 1b[con1]) | outcome (NS3h 1b[con1]) | outcome (NS3h 2a[JFH1]) | Compound
28.7 µM | 28.8 µM | – | – | Cc1ccc2nc(-c3ccc(NC(=O)c4ccc(NC(=S)Nc5ccccc5)cc4)cc3)sc2c1S(=O)(=O)O
21.3 µM | 26.8 µM | – | – | CS(=O)(=O)c1ccc2nc(NC(=O)c3ccc4ncsc4c3)sc2c1
inactive | – | inactive | – | CCOc1ccc2nc(NC(=O)c3ccc4ncsc4c3)sc2c1
5.8 µM | 5.4 µM | – | – | Cc1ccc2nc(-c3ccc4nc(-c5ccc(NC(=O)c6ccc(NC(=O)OCC7c8ccccc8-c8ccccc87)cc6)cc5)sc4c3)sc2c1S(=O)(=O)O
13.4 µM | 24.4 µM | – | – | COc1ccc(S(=O)(=O)Nc2ccc(-c3nc4ccc(-c5nc6ccc(C)c(S(=O)(=O)O)c6s5)cc4s3)cc2)cc1
6 µM | 11 µM | – | – | Cc1ccc2nc(-c3ccc4nc(-c5ccc(NC(=O)c6ccc(N(C)C)cc6)cc5)sc4c3)sc2c1S(=O)(=O)O
inactive | – | – | – | Cc1ccc2nc(-c3ccc4nc(-c5ccc(NC(=O)c6ccncc6)cc5)sc4c3)sc2c1S(=O)(=O)O
4.6 µM | 10.7 µM | – | – | Cc1ccc2nc(-c3ccc4nc(-c5ccc(NC(=O)c6ccccc6)cc5)sc4c3)sc2c1S(=O)(=O)O
– | – | inactive | inactive | CC(=O)Nc1ccc(-c2nc3ccc(-c4nc5ccc(C)c(S(=O)(=O)O)c5s4)cc3s2)cc1
inactive | inactive | – | – | Cc1ccc2nc(-c3ccc4nc(NC(=O)c5ccc6ncoc6c5)sc4c3)sc2c1
3.2 µM | 5.5 µM | – | – | Cc1ccc2nc(-c3ccc4nc(-c5ccc(NC(=O)c6ccc7nc(-c8ccc(N)cc8)sc7c6)cc5)sc4c3)sc2c1S(=O)(=O)O
6.4 µM | 4.8 µM | – | – | COc1ccc(NC(=O)Nc2ccc(-c3nc4ccc(-c5nc6ccc(C)c(S(=O)(=O)O)c6s5)cc4s3)cc2)cc1
24.3 µM | 25.2 µM | – | – | O=C(Nc1ccc(-c2nc3ccccc3[nH]2)cc1)c1ccc2ncsc2c1
6.4 µM | 3.6 µM | – | – | Cc1ccc2nc(-c3ccc4nc(-c5ccc(NC(=O)c6ccc7ncoc7c6)cc5)sc4c3)sc2c1S(=O)(=O)O
1.7 µM and 0.8 µM | 4 µM and 28.9 µM | – | – | Cc1ccc2nc(-c3ccc4nc(-c5ccc(NC(=O)c6ccc7nc(-c8ccc(NC(=O)OCC9c%10ccccc%10-c%10ccccc%109)cc8)sc7c6)cc5)sc4c3)sc2c1S(=O)(=O)O
4.4 µM | 3.6 µM | – | – | Cc1ccc2nc(-c3ccc4nc(-c5ccc(NC(=O)Nc6ccc(Cl)cc6)cc5)sc4c3)sc2c1S(=O)(=O)O
25.3 µM | 27.5 µM | – | – | COc1cccc2c(=O)c3cc(Cl)cc(C(=O)Nc4cc(Cl)ccn4)c3[nH]c12
13 µM | 17.4 µM | – | – | Cc1ccc2nc(-c3ccc4nc(-c5ccc(NC(=O)c6ccc(C(F)(F)F)c(F)c6)cc5)sc4c3)sc2c1S(=O)(=O)O
– | – | inactive | inactive | COc1ccc2sc(NC(=O)c3ccc4ncsc4c3)nc2c1

IC50 (NS3h 2a[JFH1]) | IC50 (NS3h 1b[con1]) | outcome (NS3h 1b[con1]) | outcome (NS3h 2a[JFH1]) | Compound
4.5 µM | 3.7 µM | – | – | Cc1ccc2nc(-c3ccc4nc(-c5ccc(NC(=O)c6ccc(Cl)c(Cl)c6)cc5)sc4c3)sc2c1S(=O)(=O)O
13.5 µM | 14.4 µM | – | – | Cc1ccc2nc(-c3ccc4nc(-c5ccc(N(C)C(=O)c6ccc7ccccc7c6)cc5)sc4c3)sc2c1S(=O)(=O)O
2.2 µM and 4.4 µM | 2.7 µM and 3.6 µM | – | – | Cc1ccc2nc(-c3ccc4nc(-c5ccc(NC(=O)c6ccc7ccccc7c6)cc5)sc4c3)sc2c1S(=O)(=O)O
4.6 µM | 4.4 µM | – | – | Cc1ccc2nc(-c3ccc4nc(-c5ccc(NC(=O)c6ccc(CNC(=O)OCC7c8ccccc8-c8ccccc87)cc6)cc5)sc4c3)sc2c1S(=O)(=O)O
inactive | – | inactive | – | Cc1cc2sc(-c3ccc(N)cc3)nc2cc1S(=O)(=O)O
13.5 µM | 11 µM | – | – | Cc1ccc2nc(-c3ccc4nc(-c5ccc(NCc6ccccc6)cc5)sc4c3)sc2c1S(=O)(=O)O
24.6 µM | 32.9 µM | – | – | CCN(CC)c1ccc(-c2nc3ccc(C)c(S(=O)(=O)O)c3s2)cc1
8.1 µM | 9.2 µM | – | – | Cc1ccc2nc(-c3ccc4nc(-c5ccc(NC(=O)c6cccc(C(F)(F)F)c6F)cc5)sc4c3)sc2c1S(=O)(=O)O
inactive | 16.8 µM | – | – | Cc1ccc2nc(-c3ccc4nc(-c5ccc(NC(=O)c6c(F)cccc6C(F)(F)F)cc5)sc4c3)sc2c1S(=O)(=O)O
14.7 µM | 10.4 µM | – | – | Cc1ccc2nc(-c3ccc(NC(=O)c4ccc(NC(=O)c5ccc(C(F)(F)F)cc5)cc4)cc3)sc2c1S(=O)(=O)O
0.6 µM | 0.9 µM | – | – | Cc1ccc2nc(-c3ccc4nc(-c5ccc6nc(-c7ccc(N)cc7)sc6c5)sc4c3)sc2c1S(=O)(=O)O
21.1 µM | inactive | – | – | Cc1ccc2nc(-c3ccc(N)cc3)sc2c1S(=O)(=O)O
7.4 µM | 5.2 µM | – | – | Cc1ccc2nc(-c3ccc4nc(-c5ccc(NC(=O)c6ccc(Br)cc6)cc5)sc4c3)sc2c1S(=O)(=O)O
– | – | inactive | inactive | Cc1ccc2nc(-c3ccc(NC(=O)c4ccc(NS(=O)(=O)c5ccccc5)cc4)cc3)sc2c1S(=O)(=O)O
6 µM and 15.7 µM | 37.9 µM and 40.5 µM | – | – | NS(=O)(=O)c1ccc2nc(NC(=O)c3ccc4ncsc4c3)sc2c1
24.3 µM | 14.1 µM | – | – | Cc1ccc2nc(-c3ccc4nc(-c5ccc(NC(=O)c6ccccc6C(F)(F)F)cc5)sc4c3)sc2c1S(=O)(=O)O
– | – | inactive | inactive | O=C(Nc1nc2ccc(Br)cc2s1)c1ccc2ncsc2c1
– | – | inactive | inactive | Cc1ccc2nc(-c3ccc(NC(=O)c4ccc(C(F)(F)F)cc4)cc3)sc2c1S(=O)(=O)O
28.7 µM | – | – | – | Cc1ccc2nc(-c3ccc4nc(-c5ccc(NC(=O)c6cc(C(F)(F)F)cc(C(F)(F)F)c6)cc5)sc4c3)sc2c1S(=O)(=O)O

From PubChem BioAssay AID602275 (The Scripps Research Institute Molecular Screening Center, 2012)
